The source of these data is patent publication US9802929B2, “Benzo five-membered nitrogen heterocyclic piperidine or piperazine derivatives and preparation methods and pharmaceutical compositions thereof” (Shenyang Haiwang Biotechnology Co., Ltd., priority 2012, dated 2017).

Several values for one entry are separate records, joined by “and”; a condition that tells them apart may be missing. Equal values may be shown once. Where a name gives a salt, the structure may show the parent alone.

The test system of data set [1] is In-Vitro Vascular Smooth Muscle of Rabbits. Briefly: Relaxant effect on in vitro rabbit vascular smooth muscle contraction induced by hyperkalemia solution. The settings on record: Oryctolagus cuniculus, relaxation of rabbit aortic rings contracted by hyperkalemia solution (K+ 60 mmol/L).
Data set [2] in a line: Acute toxicity test, simplified probability unit method. The settings on record: both sexes, mouse, in vivo; oral administration, Kunming mice.
The test system of a further data set is Ca^2+ channel. Briefly: Antagonism of CaCl2 cumulative contraction of rabbit aorta, pA2. The settings on record: CaCl2 cumulative contraction after Ca-free hyperkalemia depolarization. The text has this:
Calcium-free K—H solution: Remove CaCl2 from K—H solution, add an equal number of moles of KCl, and add EDTA^−2Na^+ 0.1 mmol/L, while the other components remain unchanged.
Calcium-free hyperkalemia solution: Remove CaCl2 from hyperkalemia solution, add an equal number of moles of KCl, and add EDTA^−2Na^+ 0.1 mmol/L, while the other components remain unchanged.
(§1) Cut the chest open quickly after stunning, strip out the descending aorta, then after removing the surrounding connective tissue and adipose tissue (if performed serotonin receptor antagonist experiments, endothelial cells should be removed using a smooth stainless steel bars), cut the vessels into 3-5 mm vascular ring, then pass the steel hook through the blood vessel ring, with one end is fixed to the vent hook and the other end connected to the tension transducer, then place the specimens into bath tube containing 20 mL of nutrient solution, and record tension change by tension transducer. Maintain tube temperature at 37±0.5° C., and pass bubbles (95% O2+5% CO2) into the solution as a speed of 1-2 bubbles/minute. Place an initial load of 1.5 g on the rings, and change nutrient every 20 minutes, then balance for 2 hours and start test after baseline readings are stabilized.
After the tension is stabilized, wash the specimen three times and incubate with Ca-free K—H solution for 40 minutes; depolarize with Ca-free hyperkalemia solution for 20 minutes, and then add CaCl2 (10^−6-10^−2 mol/L) to the tube until a maximum response is achieved, and then record the curve. Then wash with K—H solution repeatedly, and replace with fresh K—H solution every 20 minutes; after balancing for 60 minutes and the baseline values are stabilized, wash the specimen again three times, and incubate with Ca-free K—H solution for 40 minutes; depolarize with Ca-free hyperkalemia solution for 20 minutes, and then add compound II-36 (3×10^−6 mol/L) to the tube, and incubate for 20 minutes; then add CaCl2 (10^−6-10^−2 mol/L) until a maximum response is achieved, and then record the curve. Mark CaCl2 contraction as ordinate using maximum response as 100% base. […] PA2 value of compound II-36 is 5.61±0.04 against CaCl2 contraction effect on rabbit aorta.
After the tension is stabilized, wash the specimen three times and incubate with Ca-free K—H solution for 40 minutes; depolarize with Ca-free hyperkalemia solution for 20 minutes, and then add CaCl2 (10^−6-10^−2 mol/L) to the tube until a maximum response is achieved, and then record the curve. […]

The next data set has as its system Kunming mice. Description: Bone marrow micronucleus test. The settings on record: of 1000 polychromatic erythrocytes; oral, four days, test on the 5th day; II-36 120 mg/kg/day, cyclophosphamide 60 mg/kg/day. The procedure: After four days of continuous administration, perform bone marrow micronucleus test on the 5th day.
Positive contro, Cyclophosphamide 60 mg/kg/day; negative control, saline solution 0.1 ml/10 g/day. After four days of continuous administration, perform bone marrow micronucleus test on the 5th day.
The mice were sacrificed by cervical dislocation, and quickly stripped out of the femur and sternum;
blood and muscles were removed, epiphysis was cleaned; then sternum bone marrow was transfer with a hemostat squeeze onto clean slides with drops of calf serum or wash the femoral the marrow with fetal calf serum directly onto clean slides; after mixing, adjust slides well; then put the adjusted and aired slide into a staining jar filled with methanol, and allow to fix for 15 minutes; and then take it out and place in air until dry out; then, use freshly prepared Giemsa application solution (one sample of Giemsa stock solution and nine samples of phosphate buffer pH 6.8), stained for 10 minutes to wash away slide dye with small stream of water, and then observe under a microscope after it is dried.

Another data set concerns α1 receptors. Description: Antagonism of α receptor agonist (noradrenaline / phenylephrine) cumulative contraction of rabbit aorta, pA2.
Source text: as §1
After the tension is stabilized, record a certain length of the curve, and add NA (10^−8-10^−4 mol/L) to the tube until a maximum response is achieved, and then record the curve. Then wash the specimen with K—H solution repeatedly, balance for 1 h, add compound II-36 (3×10^−7 mol/L), and 20 minutes later, add NA following a same procedure. Mark NA contraction as ordinate using maximum response as 100% base. […] The larger the PA2 value, the stronger the antagonist effect. It is calculated based on the values of the attached figures by software.
After the tension is stabilized, record a certain length of the curve, and add NA (10^−8-10^−4 mol/L) to the tube until a maximum response is achieved, and then record the curve. Then wash the specimens repeatedly with K—H solution, and refresh K—H solution every 20 minutes, and balance for 60 minutes to allow baseline values are stabilized; then add doxazosin (10^−7 mol/L) and after 15 minutes, add NA in the same way (10^−8-6×10^−5 mol/L). Mark NA contraction as ordinate using maximum response as 100% base. […] The PA2 value of positive control doxazosin is 7.52±0.04 against NA contraction of rabbit aorta.
After the tension is stabilized, record a certain length of the curve, and add NA (3×10^−7-6×10^−5 mol/L) to the tube until a maximum response is achieved, and then record the curve. Then wash the specimen with K—H solution repeatedly, balance for 1 h, add compound II-65 (3×10^−6 mol/L), and 20 minutes later, add NA (3×10^−7-3×10^−4 mol/L) following a same procedure. Mark NA contraction as ordinate using maximum response as 100% base. […] PA2 value of compound II-65 is 6.02±0.13 against NA contraction effect on rabbit aorta.
After above procedures, wash the specimen repeatedly with K—H solution, balance for 1 hour, add doxazosin (10^−7 mol/L), and add NA in the same way after 15 minutes. Mark NA contraction as ordinate using maximum response as 100% base. […] The PA2 value of positive control doxazosin is 7.16±0.24 against NA contraction of rabbit aorta.
After the tension is stabilized, record a certain length of the curve, and add Phenylephrine (10^−6-6×10^−3 mol/L) to the tube until a maximum response is achieved, and then record the curve. Then wash the specimen with K—H solution repeatedly, balance for 1 h, add compound II-68 (3×10^−8 mol/L), and 20 minutes later, add Phenylephrine following a same procedure. Mark Phenylephrine contraction as ordinate using maximum response as 100% base. […] PA2 value of compound II-68 is 8.45±0.03 against Phenylephrine contraction effect on rabbit aorta.

Compound `Clc1cccc(C2CCN(CCCCn3nnc4ccccc43)CC2)c1` [II-2, N-(4-(1H-benzotriazole-1-yl)butyl)-4-(3-chlorophenyl)piperidine] had an EC50 in data set [1] of 15.1 µM. The compound also came in with an LD50 in data set [2] of 362 mg/kg.

As to `CCOC(=O)C1=C(COCCN)NC(C)=C(C(=O)OC)C1c1ccccc1Cl` (stereo not drawn) [amlodipine, Amlodipine Besylate, reference compound], the “PA2 value against CaCl2 contraction” value in the data set on Ca^2+ channel is 6.99±0.05 and 7.15±0.288.

For `O=P1(N(CCCl)CCCl)NCCCO1` (stereo not drawn) [cyclophosphamide, Cyclophosphamide, reference compound], the “polychromatic erythrocytes with micronucleus” value with Kunming mice is reported as 12 ‰.

As for `COc1cc2nc(N3CCN(C(=O)C4COc5ccccc5O4)CC3)nc(N)c2cc1OC` (stereo not drawn) [doxazosin, Doxazosin Mesylate, reference compound], the “PA2 value against Phenylephrine contraction” value in the data set on α1 receptors (Phenylephrine cumulative contraction) is 7.52±0.04. Besides, in the data set with α1 receptors (noradrenaline (NA) cumulative contraction), the “PA2 value against NA contraction” value was 7.52±0.04 and 7.16±0.24.
